Some test systems named below: SF-539 CNS; SK-OV-3 ovarian; SF-295 CNS; U251 CNS; TK-10 renal; NCI-H522 lung; HCC-2998 colon; SW-620 colon.
What all share (test): DTP human tumour cell line panel, 48 h

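Where inhibition never reached the appropriate level, the endpoint shown equals the highest concentration tested. Otherwise, values were interpolated linearly from a five-concentration, 48-hour dose response in 96-well plates. The concentration for 50% growth inhibition is given as GI50. TGI marks complete inhibition of growth.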

The record followed here is PubChem BioAssay (NCI).

Broadly, the TGI is the concentration giving total growth inhibition. Lower therefore signals greater sensitivity of the cells. The term GI50 denotes the concentration at which growth is held to half of that of the control.

For the compound `CCOCC(=O)N[C@H]1CCc2cc(OC)c(OC)c(OC)c2-c2ccc(OC)c(=O)cc21`, the TGI was 0.0328 µM in the assay with SF-539 CNS; 15 µM in the assay on SK-OV-3 ovarian; 0.379 µM in the assay with SF-295 CNS; 8.9 µM in the assay with U251 CNS; > 100 µM in the assay with TK-10 renal; 0.0768 µM with NCI-H522 lung. Besides, the concentration for total growth inhibition (TGI) with HCC-2998 colon is 5.27 µM; with SW-620 colon, > 100 µM.
As for `CCOC1Oc2ccc(C)cc2C(=O)/C1=C\Nc1ccc(C(N)=O)cc1` (centres undefined), the GI50 in the assay with SF-539 CNS is 18.4 µM; in the assay with SK-OV-3 ovarian it was 21.1 µM; in the assay with SF-295 CNS, 18.1 µM; in the assay with U251 CNS it was 13.2 µM; in the assay on TK-10 renal it was 15.7 µM; in the assay on NCI-H522 lung it was 20.8 µM. Besides, the GI50 in the assay with HCC-2998 colon is 20.3 µM; in the assay with SW-620 colon, 15.2 µM. For the same compound, the concentration for total growth inhibition (TGI) in the assay on SF-539 CNS was 53.2 µM; with SK-OV-3 ovarian, > 100 µM; with SF-295 CNS, 45.9 µM; in the assay with U251 CNS, 34.2 µM; with TK-10 renal it was 36 µM; in the assay on NCI-H522 lung it was 47.3 µM. Further, the TGI with HCC-2998 colon is 39 µM; with SW-620 colon, 51.2 µM.
As to `O=C(CCc1nnc2sc(-c3ccc(Cl)cc3Cl)nn12)c1nc2ccccc2[nH]1`, the GI50 with SF-539 CNS was 1.98 µM; in the assay with SK-OV-3 ovarian it was 1.77 µM; with SF-295 CNS, 1.65 µM; with U251 CNS it was 0.932 µM; in the assay with TK-10 renal, 1.29 µM; in the assay on NCI-H522 lung it was 0.755 µM. Also, the GI50 in the assay with HCC-2998 colon was 1.42 µM; with SW-620 colon, 0.229 µM. The TGI in the assay on SF-539 CNS was found to be 4.63 µM; in the assay with SK-OV-3 ovarian, 3.46 µM; in the assay on SF-295 CNS, 5.56 µM; in the assay with U251 CNS, 2.26 µM; in the assay with TK-10 renal, 2.77 µM; in the assay with NCI-H522 lung, 2.18 µM. Moreover, the TGI came out at 2.92 µM in the assay with HCC-2998 colon and 0.744 µM in the assay on SW-620 colon.
For the compound `COC1(C)CP(=O)(OC(C)C)CC(C)=C1Cl` (centres undefined), the concentration for total growth inhibition (TGI) was 39.2 µM with SF-539 CNS; > 100 µM in the assay with SK-OV-3 ovarian; 51 µM in the assay on SF-295 CNS; 48.9 µM in the assay with U251 CNS; 33.2 µM in the assay with TK-10 renal; 24.8 µM in the assay on NCI-H522 lung. Besides, the TGI was 49.1 µM in the assay with HCC-2998 colon and 32.4 µM in the assay with SW-620 colon.
For the compound `C/C(CC(=O)Nc1cc(C)ccc1C)=N\NC(=O)c1ccncc1`, the TGI in the assay on SF-539 CNS, with SK-OV-3 ovarian, in the assay on SF-295 CNS, in the assay on U251 CNS, in the assay on TK-10 renal and with NCI-H522 lung was > 100 µM throughout. For the same compound, the total growth inhibition concentration (TGI) in the assay on HCC-2998 colon and with SW-620 colon was > 100 µM each time.
Take `CC(=O)OCC1OC(NC(=S)N/N=C2\CC(c3ccccc3)Oc3ccccc32)C(OC(C)=O)C(OC(C)=O)C1OC(C)=O` (centres undefined): the TGI with SF-539 CNS, in the assay on SK-OV-3 ovarian, in the assay with SF-295 CNS, in the assay on U251 CNS, in the assay with TK-10 renal and with NCI-H522 lung was > 100 µM in each case. Further, the TGI in the assay with HCC-2998 colon and in the assay on SW-620 colon was > 100 µM throughout.
`O=c1cc(-c2ccccc2)oc2cc(OC/C(=N/O)c3ccccc3)ccc12`: the GI50 is 10.8 µM with SF-539 CNS; 12.1 µM in the assay with SK-OV-3 ovarian; 6 µM in the assay with SF-295 CNS; 10.1 µM in the assay on U251 CNS; 7.18 µM with TK-10 renal; 9.61 µM in the assay with NCI-H522 lung. Moreover, the values for the GI50 in the assay with HCC-2998 colon and in the assay with SW-620 colon were 30.7 µM and > 50 µM, respectively. For the same compound, the TGI with SF-539 CNS is 23.6 µM; in the assay with SK-OV-3 ovarian, 32.5 µM; with SF-295 CNS, 23.4 µM; in the assay on U251 CNS, 20 µM; with TK-10 renal, 19.9 µM; in the assay with NCI-H522 lung it was > 50 µM. Further, the concentration for total growth inhibition (TGI) in the assay with HCC-2998 colon and with SW-620 colon was > 50 µM each time.
For `CCCCCCCC[C@@H](O)CC(=O)N[C@@H](CC(N)=O)C(=O)N[C@@H](CCC(N)=O)C(=O)N[C@@H](CC(=O)c1cc(C)cc(O)c1C(=O)c1c(O)cccc1O)CC(C)C`, the GI50 with SF-539 CNS was 0.253 µM; with SK-OV-3 ovarian, 12.6 µM; in the assay on SF-295 CNS, 1.97 µM; with U251 CNS it was 0.265 µM; with TK-10 renal, 0.179 µM; in the assay with NCI-H522 lung, 0.228 µM. For the same compound, the GI50 in the assay on HCC-2998 colon is 0.403 µM; with SW-620 colon it was 0.426 µM. Moreover, the TGI in the assay on SF-539 CNS is 0.783 µM; in the assay with SK-OV-3 ovarian it was > 100 µM; with SF-295 CNS it was 7.53 µM; in the assay with U251 CNS it was 2.33 µM; with TK-10 renal it was 1.26 µM; in the assay with NCI-H522 lung it was 0.815 µM. Also, the TGI in the assay with HCC-2998 colon turned out to be 1.43 µM; in the assay on SW-620 colon, 23.6 µM.
On to `C[N+]1=C(/C=C/c2ccc(O)c3ncccc23)C(C)(C)c2ccccc21`, for which the GI50 in the assay on SF-539 CNS is 2.55 µM; with SK-OV-3 ovarian, 2.76 µM; in the assay on SF-295 CNS it was 2.21 µM; in the assay on U251 CNS, 2.4 µM; with TK-10 renal, 3.43 µM; in the assay on NCI-H522 lung, 2.83 µM. In addition, the GI50 is 2.44 µM with HCC-2998 colon and 2.85 µM in the assay on SW-620 colon. The TGI in the assay with SF-539 CNS came out at 10.3 µM; in the assay on SK-OV-3 ovarian, 12 µM; in the assay with SF-295 CNS, 5.24 µM; in the assay on U251 CNS, 17.1 µM; with TK-10 renal, 14.9 µM; with NCI-H522 lung it was 11.6 µM. The total growth inhibition concentration (TGI) in the assay with HCC-2998 colon is 6.73 µM; with SW-620 colon it was 11.1 µM.
In the case of `COc1cc[nH]c1/C=C1\C(=O)Nc2ccc(F)c(C#CC3(O)CCNCC3)c21`, the concentration for 50% growth inhibition (GI50) in the assay on SF-539 CNS was 0.106 µM; with SK-OV-3 ovarian it was 0.0172 µM; in the assay with SF-295 CNS, 0.287 µM; in the assay on U251 CNS, 0.0736 µM; in the assay on TK-10 renal it was 0.0291 µM; with NCI-H522 lung, 0.22 µM. The concentration for 50% growth inhibition (GI50) in the assay on HCC-2998 colon is 0.368 µM; in the assay on SW-620 colon, 0.0832 µM. Also, the TGI in the assay with SF-539 CNS turned out to be 0.426 µM; in the assay on SK-OV-3 ovarian, 2.61 µM; in the assay with SF-295 CNS, 2.8 µM; in the assay with U251 CNS, 0.984 µM; in the assay with TK-10 renal, 0.72 µM; in the assay on NCI-H522 lung it was 0.715 µM. The total growth inhibition concentration (TGI) came out at 0.979 µM in the assay with HCC-2998 colon and 2.67 µM in the assay with SW-620 colon.
As for `Cc1ccc(-c2nc3nc(-c4ccccc4)nc(N4CCCNCC4)c3o2)cc1`, the GI50 in the assay on SF-539 CNS was 1.82 µM; in the assay on SK-OV-3 ovarian, 1.81 µM; with SF-295 CNS, 1.77 µM; in the assay with U251 CNS it was 1.54 µM; in the assay on TK-10 renal it was 1.73 µM; with NCI-H522 lung, 1.73 µM. Moreover, the GI50 in the assay with HCC-2998 colon was 2.04 µM; in the assay with SW-620 colon, 1.55 µM. For the same compound, the TGI in the assay with SF-539 CNS is 3.31 µM; in the assay with SK-OV-3 ovarian it was 3.27 µM; in the assay on SF-295 CNS, 3.33 µM; in the assay with U251 CNS, 2.91 µM; with TK-10 renal, 3.14 µM; in the assay with NCI-H522 lung, 3.39 µM. The concentration for total growth inhibition (TGI) in the assay on HCC-2998 colon stood at 4.17 µM; in the assay on SW-620 colon, 3.17 µM.
